Source: patent publication EP1149072B1, “SULFONAMIDE HYDROXAMATES” (F. HOFFMANN-LA ROCHE AG, priority 1998, dated 2000)

Assays:
Assay type in all cases: biochemical
[1] = target: T1, collagenase-1 (Homo sapiens, UniProt P03956); assay: Measurement of collagenase activity (hydrolysis of fluorogenic peptide MCA-Pro-Leu-Gly-Leu-DPA-Ala-Arg-NH2); details: based on inhibitory data from Assay A of Ex. 21 and the Assay of Ex. 22
T1 construct: the collagenase-1 catalytic domain was released by treatment with 1mM of aminophenylmercuric acetate (APMA); ubiquitin (cleaved yes); made in house; host or cells: E. coli
T1 sequence (P03956 100-269 limits assumed): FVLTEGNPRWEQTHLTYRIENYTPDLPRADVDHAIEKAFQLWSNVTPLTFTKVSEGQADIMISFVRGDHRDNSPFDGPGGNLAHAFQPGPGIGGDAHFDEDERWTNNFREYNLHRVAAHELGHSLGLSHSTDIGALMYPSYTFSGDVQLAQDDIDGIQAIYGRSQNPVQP
Protocol: (§1) The catalytic domain of human collagenase-1 was expressed as a fusion protein with ubiquitin in E. Coli as described in Gehring, E.R. et al., J. Biol. Chem., 270, 22507, (1995). After purification of the fusion protein, the collagenase-1 catalytic domain was released by treatment with 1mM of aminophenylmercuric acetate (APMA) for 1 hour at 37 °C and then purified by zinc chelate chromatography. Human collagenase-2 and gelatinase B were isolated in active form from buffy coats as described in Mookhtiar, K.A. et al., Biochemistry, 29, 10620, (1990). The propeptide and catalytic domain portion of human collagenase-3 was expressed in E. Coli as an N-terminal fusion protein with ubiquitin. After purification, the catalytic domain was released by treatment with 1 mM APMA for 1 hour at 37 ° C, and then purified by zinc chelate chromatography. Rat collagenase-3 was purified in active form from the culture media of uterine smooth muscle cells as described in Roswit, W.T. et al., Arch. Biochem. Biophys., 225, 285-295 (1983).
(§2) The collagenase-1, collagenase-2 and collagenase-3 inhibitory activity of compounds of this invention in vitro was determined based on the hydrolysis of MCA-Pro-Leu-Gly-Leu-DPA-Ala-Arg-NH2 (SEQ ID NO:8) (Bachem, Inc.) at 37°C as described in Knight, C.G., et al., FEBS Lett., 296(3): 263-266 (1992). The collagenase enzyme was diluted with assay buffer (50 mM Tricine pH 7.5, 200 mM NaCl, 10 mM CaCl2, and 0.005% Brij-35) containing […] of above substrate dissolved in DMSO. Compounds of the invention dissolved in DMSO or only DMSO (control samples) were added such that the final DMSO concentration in all assays was 2.5%. The fluorescence changes were monitored with a Perkin-Elmer LS-50B flourimeter using an excitation wavelength of 328 nm and an emission wavelength of 393 nm.

[2] = target: T2, collagenase-2 (Homo sapiens, UniProt P22894); assay: as above; details: based on inhibitory data from Assay A of Ex. 21 and the Assay of Ex. 22
T2 construct: Human collagenase-2 and gelatinase B were isolated in active form from buffy coats; from tissue; host or cells: human buffy coats (blood leukocytes)
T2 sequence (P22894 101-467): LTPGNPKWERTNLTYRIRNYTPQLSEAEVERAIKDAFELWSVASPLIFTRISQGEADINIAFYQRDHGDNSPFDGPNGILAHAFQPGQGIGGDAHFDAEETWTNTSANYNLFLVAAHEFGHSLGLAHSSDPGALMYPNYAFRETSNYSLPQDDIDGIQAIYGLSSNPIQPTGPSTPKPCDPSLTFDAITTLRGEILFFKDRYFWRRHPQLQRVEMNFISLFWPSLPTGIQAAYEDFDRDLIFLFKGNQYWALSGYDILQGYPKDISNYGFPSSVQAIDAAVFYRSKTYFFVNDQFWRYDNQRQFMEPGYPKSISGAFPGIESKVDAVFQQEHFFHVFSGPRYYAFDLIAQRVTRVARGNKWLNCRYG
Protocol: as §1, §2

[3] = target: T3, Procollagen C-Proteinase (PCP) (Homo sapiens, UniProt P13497); assay: Inhibition of Procollagen C-Proteinase activity, Assay A (continuous fluorescence assay, synthetic peptide substrate); details: Assay A from Ex. 21; 20 µM substrate, pH 7.5, 30°C
T3 construct: made in house; enzyme purified from culture fluid
T3 sequence (P13497 121-730 isoform P13497-2 limits assumed): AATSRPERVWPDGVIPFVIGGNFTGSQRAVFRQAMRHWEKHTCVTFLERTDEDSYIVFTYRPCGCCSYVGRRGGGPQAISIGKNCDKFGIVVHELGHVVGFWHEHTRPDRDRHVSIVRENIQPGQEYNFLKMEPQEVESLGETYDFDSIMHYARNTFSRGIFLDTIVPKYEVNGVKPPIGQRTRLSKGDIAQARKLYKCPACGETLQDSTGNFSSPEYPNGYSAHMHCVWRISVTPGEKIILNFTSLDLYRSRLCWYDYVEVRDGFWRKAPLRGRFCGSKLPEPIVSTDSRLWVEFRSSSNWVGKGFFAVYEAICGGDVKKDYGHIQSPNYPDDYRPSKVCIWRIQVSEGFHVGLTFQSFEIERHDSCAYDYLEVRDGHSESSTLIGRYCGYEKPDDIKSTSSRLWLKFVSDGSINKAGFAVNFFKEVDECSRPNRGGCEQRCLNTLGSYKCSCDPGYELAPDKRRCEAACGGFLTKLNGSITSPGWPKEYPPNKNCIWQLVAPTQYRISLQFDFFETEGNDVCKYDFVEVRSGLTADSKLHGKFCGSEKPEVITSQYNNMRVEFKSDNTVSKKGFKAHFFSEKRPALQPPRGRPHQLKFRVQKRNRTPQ
Protocol: Human Procollagen C-Proteinase (PCP, also known as Bone Morphogenetic Protein-1 or BMP-1) was cloned from a human fibroblast cDNA library (Stratagene, San Diego, CA). Cloning was performed by PCR based on the reported nucleotide sequence (Wozney, J.M., Rosen,V., Celeste, A.J., Mitsock, L.M., Whitters, M.J., Kriz, R.W., Hewick, R.M., and Wang, E.A. (1989) direct GenBank submission accession M22488, locus HUMBMP1) using Taq polymerase, the 5' primer […] […] […] (SEQ ID NO:1) (Oligo Therapeutics, Inc., Wilsonville, OR), and the 3' reverse strand primer […] TTGAGCTGGTG (SEQ ID NO:2) (Gibco) to yield the entire full-length nucleotide encoding the signal sequence, propeptide, catalytic domain, and all C-terminal domains to the natural translation termination site. The PCR product was purified by gel electrophoresis using the Wizard DNA Purification Kit (Promega, Madison, WI) and ligated directly into the mammalian expression vector pCR3.1 (Invitrogen, Carlsbad, CA) by the TA cloning method. Ligated product was used to transform E coli strain TOP10F' (Invitrogen, Carlsbad, CA) by a standard heat-shock method, and transformants were selected by restriction analysis of purified plasmid using the enzymes HindIII and BamHI. Transformants testing positive for the PCP insert were submitted for sequencing using the Perkin-Elmer / ABI system. Two clones were selected that, when combined, encoded the entire amino acid sequence identical to the one predicted by Wozney et al. The two clones were recombined by restriction using the enzymes BbrI, which cleaved at a naturally occurring internal site, and EcoRV, which cleaved at the junction of the insert and vector. The excised fragments were religated into EcoRV-treated pCR3.1. The resulting construct contained the entire coding sequence identical to that reported by Wozney et al. with the exception of two silent mutations in the signal sequence, G->A at both positions 39 and 45 counting from the translation initiation site (ATG). The completed plasmid construct was amplified in E. coli DH5a and purified using anion exchange chromatography (MaxiPrep columns from Qiagen (Valencia, CA) catalog #12162).
A column packed with Dyematrex Gel Green A (Millipore, Bedford, MA) was equilibrated against 50 mM HEPES, pH7.2, containing 6mM CaCl2 and 0.3M NaCl. After the HT1080 cell culture fluid was loaded, the column was washed with 10 column volumes of the equilibration buffer containing 1.0 M NaCl. PCP was eluted with 50 mM HEPES pH 7.2 containing 3 M NaCl, 2 M urea and 6 mM CaCl2. Eluate fractions were pooled and concentrated to 150-200 ml and dialyzed against 4.0 liters of 50 mM HEPES, 6 mM CaCl2, pH 7.2 overnight. The material was then centrifuged at 5,000 g for 15 minutes to remove precipitates. The PCP containing sample were stored at -20 °C until ready for further processing. The PCP containing sample was thawed and diluted with 50 mM HEPES pH 7.2 containing 6 mM CaCl2, if necessary to bring the NaCl concentration to 0.1-0.15 M. The pH was adjusted to 6.7 with 2 N HCl. The protein solution was filtered through a 0.45 µm filter to remove any precipitate. This preparation was then loaded onto a column packed with Q-Sepharose High Performance (Pharmacia, Piscataway, NJ) which had been equilibrated with 50mM HEPES pH 6.7 containing 6 mM CaCl2 and 0.15 M NaCl. The PCP was not retained in the column and was therefore in the flow through fractions. The PCP was concentrated to 1 mg/ml and used for screening.
Culture fluid from the drosophila cells was concentrated 8 fold and the pH adjusted to 7.1-7.2 if necessary. The culture fluid was centrifuged at 3000 g for 10 minutes and filtered through 0.45 µm filters. The culture fluid was then loaded onto columns packed with carboxy-sulfone packing material (J.T. Baker/Mallinckrodt, Phillipsburg, NJ) which had been equilibrated with 0.1 M NaCl, 50 mM HEPES, 6 mM CaCl2, pH 7.2. […]

[4] = target: T4, collagenase-3 (Homo sapiens, UniProt P45452); assay: Measurement of collagenase activity (hydrolysis of fluorogenic peptide MCA-Pro-Leu-Gly-Leu-DPA-Ala-Arg-NH2); details: based on inhibitory data from Assay A of Ex. 21 and the Assay of Ex. 22
T4 construct: After purification, the catalytic domain was released by treatment with 1 mM APMA for 1 hour; ubiquitin (N, cleaved yes); made in house; host or cells: E. coli
Protocol: as §1, §2

SMILES	Selectivity for PCP/Col-1 [1]	Selectivity for PCP/Col-2 [2]	IC50 [3]	Selectivity for PCP/Col-3 [4]
COc1cc(C)c(S(=O)(=O)N(Cc2ccc3c(c2)OCO3)[C@H](CO)C(=O)NO)c(C)c1C [Cmpd 5, N-hydroxy-2(R)-[(3,4-methylenedioxybenzyl)-(4-methoxy-2,3,6-trimethylbenzenesulfonyl)amino)-3-hydroxypropionamide]	520.5	123.3	73 nM	–
COc1cc(C)c(S(=O)(=O)N(Cc2ccc3[nH]ccc3c2)[C@H](COC(C)(C)C)C(=O)NO)c(C)c1C [Cmpd 15, N-Hydroxy-2(R)-[(4-methoxy-2,5,6-trimethylbenzenesulfonyl)-(1H-indol-5-ylmethyl)amino]-3-tert-butoxypropionamide]	515.1	454.5	66 nM	–
COc1cc(C)c(S(=O)(=O)N(Cc2ccc3c(c2)OCO3)[C@H](CNS(C)(=O)=O)C(=O)NO)c(C)c1 [Cmpd 128, N-hydroxy-2(R)-[(3,4-methylendioxybenzyl)-(2,6-dimethyl-4-methoxybenzenesulfonyl)amino]-3-(methanesulfonyl)amino-propionamide]	–	–	30 nM	–

Continued by falling IC50 [3], values first:

Selectivity for PCP/Col-1 [1]	Selectivity for PCP/Col-2 [2]	IC50 [3]	Selectivity for PCP/Col-3 [4]	SMILES
400.0	136.4	110 nM	–	COc1cc(C)c(S(=O)(=O)N(Cc2ccc3[nH]ccc3c2)[C@@H](C(=O)NO)C(C)C)cc1C [Cmpd 145, N-hydroxy-2(R)-2-[(1H-indol-5-ylmethyl)-(4-methoxy-2,5-dimethylbenzenesulfonyl)-amino]-3-methylbutyramide]
89.9	23.2	69 nM	14.5	COc1cc(C)c(S(=O)(=O)N(Cc2ccc3c(c2)OCO3)[C@@H](C(=O)NO)C(C)C)c(C)c1C [Cmpd 12, N-hydroxy-2(R)-[(3,4-methylenedioxybenzyl)-(4-methoxy-2,3,6-trimethylbenzenesulfonyl)amino]-3-methylbutyramide]
367.6	55.9	68 nM	–	COc1cc(C)c(S(=O)(=O)N(Cc2ccc3c(c2)OCO3)[C@@H](C(=O)NO)C(C)C)c(C)c1 [Cmpd 40, N-hydroxy-2(R)-2-[(3,4-methylenedioxybenzyl)-(4-methoxy-2,6-dimethylbenzene-sulfanyl)amino]-3-methylbutyramide]
1775.0	250.0	40 nM	1950.0	COc1cc(C)c(S(=O)(=O)N(Cc2ccc3[nH]cnc3c2)[C@@H](C(=O)NO)C(C)C)c(C)c1C [Cmpd 82]
–	–	26 nM	–	COc1cc(C)c(S(=O)(=O)N(Cc2ccc3[nH]cc(C(C)=O)c3c2)[C@@H](C(=O)NO)C(C)C)c(C)c1C [Cmpd 126, N-hydroxy-2(R)-[(1H-3-acetyl-indol-5-ylmethyl)-(4-methoxy-2,3,6-trimethylbenzenesulfonyl)amino]-3-methylbutyramide]
